Experiments:
KIT mutated melanoma = conditions: case reports, retrospective and phase II studies; cited from earlier work
melanoma cell lines [1] = assay: phospho-ERK Western blot, MEK inhibitor; format: cell-based; conditions: 10 nM, 24 h; all cell lines tested, including BRAF wild-type MeWo
Procedure: Whole cell lysates were prepared in lysis buffer supplemented with protease and phosphatase inhibitors (Roche). Equal amounts of protein were resolved by electrophoresis on gradient gels (Bio-Rad).
Antibodies used were as follows: MITF (C5 hybridoma); PGC1α (Calbiochem); α-tubulin (clone DM1A, Sigma); GAPDH, phospho-ERK1/2, and ERK1/2 (Cell Signaling Technology). Melanoma biopsies prior and during treatment were sectioned, embedded in paraffin and stained with the phospho-ERK1/2 antibody (Cell Signaling Technology). PLX4720 was used at 1 μM concentration in all assays, whereas control samples were treated with an equal volume of DMSO.

[2] = system: 12 breast, lung, colon and melanoma cell lines; assay: Public microarray (GSE10086) of PGC1α mRNA; conditions: 10 nM, 24 h; p<0.0001
melanoma cell lines [3] = assay: PGC1α mRNA by quantitative PCR, MEK inhibitor; conditions: 10 nM, 24 h; all cell lines tested, including BRAF wild-type MeWo
[4] = system: TRPM1 and other direct targets of MITF; assay: Expression of MITF targets (microarray, qtPCR); conditions: published microarrays and qtPCR
[5] = system: BRAF-mutant non-melanomas; assay: Gene set enrichment analysis of non-melanomas treated with PD0325901
melanoma cell lines [6] = assay: Gene set enrichment analysis of melanoma cell lines treated with PD0325901
melanoma cells (M14) = assay: Cell number, mitochondrial inhibitors combined with PLX4720
Procedure: (§1) Melanoma cell were treated for 24 h with PLX4720 then mitochondrial uncoupler for 48 h, prior to estimation of cell number.
as §1
Cell number was calculated using the CYQUANT® assay (INVITROGEN™) or crystal violet staining. Lactate measurements were done using the Lactate Assay (BioVision or SIGMA®) per manufacturer's protocols. Indicated cell lines were plated in complete media overnight. Media was changed to serum free-media to avoid interference with the assay for 16 h with either PLX4720 (3 μM) or PLX4032 (1 μM) or vehicle control prior to harvesting cells and measurement of lactate. Results were normalized to cell number. All assays were performed in logarithmically growing cells.

MEK = conditions: cited from earlier work
MEK1/2 = conditions: cited from earlier work
apoptosis = assay: Apoptosis, tigecycline with PLX4720; format: cell-based; conditions: combination with PLX4720
[7] = PD0325901, non-melanomas (N=7), gene set size 16
[8] = PD0325901, non-melanomas (N=7), gene set size 17
[9] = PD0325901, non-melanomas (N=7), gene set size 19
[10] = PD0325901, non-melanomas (N=7), gene set size 21
[11] = PD0325901, non-melanomas (N=7), gene set size 22
[12] = PD0325901, non-melanomas (N=7), gene set size 27
[13] = PD0325901, non-melanomas (N=7), gene set size 29
[14] = PD0325901, non-melanomas (N=7), gene set size 53
[15] = PD0325901, non-melanomas (N=7), gene set size 55
[16] = PD0325901, non-melanomas (N=7), gene set size 65
[17] = PD0325901, non-melanomas (N=7), gene set size 66
[18] = PD0325901, non-melanomas (N=7), gene set size 73
[19] = PD0325901 treated melanoma cell lines (n = 5), gene set size 15
[20] = PD0325901 treated melanoma cell lines (n = 5), gene set size 17
[21] = PD0325901 treated melanoma cell lines (n = 5), gene set size 19
[22] = PD0325901 treated melanoma cell lines (n = 5), gene set size 20
[23] = PD0325901 treated melanoma cell lines (n = 5), gene set size 21
[24] = PD0325901 treated melanoma cell lines (n = 5), gene set size 22
[25] = PD0325901 treated melanoma cell lines (n = 5), gene set size 24
[26] = PD0325901 treated melanoma cell lines (n = 5), gene set size 28
[27] = PD0325901 treated melanoma cell lines (n = 5), gene set size 44
[28] = PD0325901 treated melanoma cell lines (n = 5), gene set size 49
[29] = PD0325901 treated melanoma cell lines (n = 5), gene set size 55
[30] = PD0325901 treated melanoma cell lines (n = 5), gene set size 76
[31] = PD0325901 treated melanoma cell lines (n = 5), gene set size 107

Structure (SMILES): CNC(=O)c1cc(Oc2ccc(NC(=O)Nc3ccc(Cl)c(C(F)(F)F)c3)cc2)ccn1 [sorafenib]
- clinical responses (KIT mutated melanoma): clinical responses

Structure (SMILES): O=C(NOC[C@H](O)CO)c1ccc(F)c(F)c1Nc1ccc(I)cc1F [PD0325901]
- ERK phosphorylation (melanoma cell lines [1]): Suppression
- PGC1α mRNA (public microarray) [2]: only affected PGC1α mRNA in melanoma cell lines
- PGC1α mRNA (melanoma cell lines [3]): induction
- expression of TRPM1 and other direct targets of MITF [4]: induced
- enrichment of oxidative phosphorylation or citric acid cycle gene sets ([5]; BRAF-mutant non-melanomas treated with PD0325901): no enrichment
- ES, INSULIN_NIH3T3_UP [5, 7]: −0.6535
- NES, INSULIN_NIH3T3_UP [5, 7]: −1.926
- ES, ERK5PATHWAY [5, 8]: −0.4831
- ES, SCHURINGA_STAT5A_DN [5, 8]: −0.6396
- NES, ERK5PATHWAY [5, 8]: −1.639
- NES, SCHURINGA_STAT5A_DN [5, 8]: −1.67
- ES, PASSERINI_OXIDATION [5, 9]: −0.5358
- NES, PASSERINI_OXIDATION [5, 9]: −1.657
- ES, LOTEM_LEUKEMIA_UP [5, 10]: −0.6144
- ES, ST_GA12_PATHWAY [5, 10]: −0.5512
- NES, LOTEM_LEUKEMIA_UP [5, 10]: −1.935
- NES, ST_GA12_PATHWAY [5, 10]: −1.683
- ES, MPRPATHWAY [5, 11]: −0.5726
- NES, MPRPATHWAY [5, 11]: −1.724
- ES, HSA00566_ETHER_LIPID_METABOLISM [5, 12]: −0.6099
- ES, HSA00591_LINOLEIC_ACID_METABOLISM [5, 12]: −0.6262
- NES, HSA00566_ETHER_LIPID_METABOLISM [5, 12]: −1.836
- NES, HSA00591_LINOLEIC_ACID_METABOLISM [5, 12]: −1.85
- ES, HDACPATHWAY [5, 13]: −0.524
- NES, HDACPATHWAY [5, 13]: −1.695
- ES, HDACI_COLON_CLUSTER9 [5, 14]: −0.4566
- NES, HDACI_COLON_CLUSTER9 [5, 14]: −1.716
- ES, HSA00010_GLYCOLYSIS_AND_GLUCONEOGENESIS [5, 15]: −0.4307
- NES, HSA00010_GLYCOLYSIS_AND_GLUCONEOGENESIS [5, 15]: −1.651
- ES, MUNSHI_MM_UP [5, 16]: −0.4503
- NES, MUNSHI_MM_UP [5, 16]: −1.811
- ES, HSA04370_VEGF_SIGNALING_PATHWAY [5, 17]: −0.4932
- NES, HSA04370_VEGF_SIGNALING_PATHWAY [5, 17]: −1.946
- ES, HSA04664_FC_EPSILON_RI_SIGNALING_PATHWAY [5, 18]: −0.4516
- NES, HSA04664_FC_EPSILON_RI_SIGNALING_PATHWAY [5, 18]: −1.711
- ES, SARCOMAS_LEIOMYOSARCOMA_CALP_UP (melanoma cell lines [6]; [19]): −0.5939
- NES, SARCOMAS_LEIOMYOSARCOMA_CALP_UP (melanoma cell lines [6]; [19]): −1.618
- ES, TIS7_OVEREXP_DN (melanoma cell lines [6]; [20]): −0.6059
- NES, TIS7_OVEREXP_DN (melanoma cell lines [6]; [20]): −1.666
- ES, ATP_SYNTHESIS (melanoma cell lines [6]; [21]): −0.5886
- ES, FLAGELLAR_ASSEMBLY (melanoma cell lines [6]; [21]): −0.5886
- ES, TYPE_III_SECRETION_SYSTEM (melanoma cell lines [6]; [21]): −0.5886
- NES, ATP_SYNTHESIS (melanoma cell lines [6]; [21]): −1.651
- NES, FLAGELLAR_ASSEMBLY (melanoma cell lines [6]; [21]): −1.651
- NES, TYPE_III_SECRETION_SYSTEM (melanoma cell lines [6]; [21]): −1.651
- ES, PHOTOSYNTHESIS (melanoma cell lines [6]; [22]): −0.5675
- NES, PHOTOSYNTHESIS (melanoma cell lines [6]; [22]): −1.596
- ES, PHENYLALANINE_METABOLISM (melanoma cell lines [6]; [23]): −0.5653
- NES, PHENYLALANINE_METABOLISM (melanoma cell lines [6]; [23]): −1.644
- ES, BRENTANI_CYTOSKELETON (melanoma cell lines [6]; [24]): −0.5522
- NES, BRENTANI_CYTOSKELETON (melanoma cell lines [6]; [24]): −1.762
- ES, LIAN_MYELOID_DIFF_GRANULE (melanoma cell lines [6]; [25]): −0.6115
- NES, LIAN_MYELOID_DIFF_GRANULE (melanoma cell lines [6]; [25]): −1.565
- ES, TYROSINE_METABOLISM (melanoma cell lines [6]; [26]): −0.5609
- NES, TYROSINE_METABOLISM (melanoma cell lines [6]; [26]): −1.668
- ES, HPV31_DN (melanoma cell lines [6]; [27]): −0.511
- NES, HPV31_DN (melanoma cell lines [6]; [27]): −1.584
- ES, GLUCONEOGENESIS (melanoma cell lines [6]; [28]): −0.455
- NES, GLUCONEOGENESIS (melanoma cell lines [6]; [28]): −1.548
- ES, OXIDATIVE_PHOSPHORYLATION (melanoma cell lines [6]; [29]): −0.5314
- NES, OXIDATIVE_PHOSPHORYLATION (melanoma cell lines [6]; [29]): −1.765
- ES, VANASSE_BCL2_TARGETS (melanoma cell lines [6]; [30]): −0.3981
- NES, VANASSE_BCL2_TARGETS (melanoma cell lines [6]; [30]): −1.55
- ES, TPA_RESIST_MIDDLE_DN (melanoma cell lines [6]; [31]): −0.3946
- NES, TPA_RESIST_MIDDLE_DN (melanoma cell lines [6]; [31]): −1.586
- citric acid cycle and oxidative phosphorylation gene sets (melanoma cell lines [6]; melanoma cells treated with PD0325901): trend towards induction

Structure (SMILES): CC[C@@H]1/C=C/C=C/C[C@H](C)[C@H](O)[C@](C)(O)C(=O)[C@H](C)[C@@H](O)[C@H](C)C(=O)[C@H](C)[C@@H](O)[C@H](C)/C=C/C(=O)O[C@H]2[C@@H](C)[C@@H](CC1)O[C@@]1(CC[C@@H](C)[C@@H](C[C@H](C)O)O1)[C@@H]2C [oligomycin A]
- Combination Index with PLX4720 (additively enhanced the efficacy of PLX4720) (melanoma cells (M14); in vitro, cell number after 72 hrs): 0.9

Structure (SMILES): N#CC(C#N)=NNc1cccc(Cl)c1 [CCCP]
- sensitivity of cells to the agent alone (melanoma cells (M14); M14 cells, 72 hrs): relatively insensitive

Structure (SMILES): Cc1cc(C(=O)NOCCO)c(Nc2ccc(I)cc2F)n(C)c1=O [AZD8330]
- IC50 (MEK1/2): 7 nM

Structure (SMILES): Cn1c(=O)c(F)c(Nc2ccc(I)cc2F)c2c(=O)n(C[C@@H](O)CO)cnc21 [TAK-733]
- IC50 (MEK): 3.2 nM

Structure (SMILES): CN(C)c1cc(NC(=O)CNC(C)(C)C)c(O)c2c1C[C@H]1C[C@H]3[C@H](N(C)C)C(O)=C(C(N)=O)C(=O)[C@@]3(O)C(O)=C1C2=O [tigecycline, N-[(5aR,6aS,7S,9Z,10aS)-9-[amino(hydroxy)methylidene]-4,7-bis(dimethylamino)-1,10a,12-trihydroxy-8,10,11-trioxo-5,5a,6,6a,7,8,9,10,10a,11-decahydrotetracen-2-yl]-2-(tert-butylamino)acetamide]
- apoptosis induced by BRAF inhibitor PLX4720 (apoptosis): strongly potentiates apoptosis

Source: patent US9937161B2, “Combinatorial compositions and methods for treatment of melanoma” (THE GENERAL HOSPITAL CORPORATION, priority 2013, dated 2018)
